The assay has as its target T1, CYP76AK6 (Salvia pomifera, UniProt A0A0S1TPC7).
T1 construct: expressed in S. cerevisiae (pESC-Trp) with CYP76AH24 variant and Populus trichocarpa CPR2
T1 sequence (A0A0S1TPC7 1-500): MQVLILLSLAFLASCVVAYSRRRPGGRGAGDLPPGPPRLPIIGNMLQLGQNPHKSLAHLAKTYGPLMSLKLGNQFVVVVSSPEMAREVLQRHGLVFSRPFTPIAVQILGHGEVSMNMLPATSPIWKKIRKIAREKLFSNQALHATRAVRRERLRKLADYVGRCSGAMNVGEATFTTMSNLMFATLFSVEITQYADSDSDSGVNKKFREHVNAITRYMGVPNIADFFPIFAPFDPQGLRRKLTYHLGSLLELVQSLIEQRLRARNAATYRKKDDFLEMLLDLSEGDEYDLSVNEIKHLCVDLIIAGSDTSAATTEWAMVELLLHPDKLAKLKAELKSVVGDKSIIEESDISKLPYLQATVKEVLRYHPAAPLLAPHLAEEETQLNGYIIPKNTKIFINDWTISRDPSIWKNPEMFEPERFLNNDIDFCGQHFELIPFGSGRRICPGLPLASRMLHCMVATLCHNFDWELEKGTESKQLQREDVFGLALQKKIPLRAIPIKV
The assay can be described thus: product titre in engineered yeast cells, GC. The note with it: C-20 oxidation to pisiferic acid; co-expressed CYP76AH24(F112L), CPR2, Cytb5. Format: cell-based.

Each structure is given as a SMILES string.

Data on one molecule can be found in publication PMC5562805, “Overcoming the plasticity of plant specialized metabolism for selective diterpene production in yeast” (Scientific Reports, 2017).

`CC(C)c1cc2c(cc1O)[C@@]1(C)CCCC(C)(C)[C@@H]1CC2` [ferruginol]: the “product titre in engineered yeast cells, GC” value is “CYP76AH24(F112L) variant enabled the complete shift from carnosic acid to pisiferic acid production in yeast”.
